Measurements as given in patent publication US20260200946A1, “KRAS(G12V) INHIBITORS” (Ranok Therapeutics (Hangzhou) Co. Ltd., priority 2022, published 2026).

Key:
KRAS(G12V)/SOS1 = biological target: T1, KRAS(G12V)/SOS1 (Homo sapiens, UniProt P01116, G12V); experiment: KRAS(G12V)/SOS1 homogeneous time-resolved fluorescence (HTRF) assay; format: binding; conditions: absence of GTP; 4° C., 3 hours; read-out: HTRF of KRASG12V-SOS1
T1 construct: purchased Cisbio 63ADK000CB18PEH
Method: Binding of test compounds to KRAS(G12V) target protein, which in turn blocks KRAS(G12V) interaction with the SOS1 protein, was measured in the absences of GTP by homogeneous time-resolved fluorescence using the KRAS-G12V/SOS1 Binding Assay Kit (Cisbio, 63ADK000CB18PEH), following the manufacturer's instructions, except as noted. 3-fold serial dilutions of each test compound were prepared ranging from 20 µM to 1.02 nM. The test compound was mixed and incubated with reaction components, incubated in a sealed plate at 4° C. for 3 hours and fluorescence was measured using a PerkinElmer Envision plate reader. The KRAS(G12V)-SOS1 IC50 values (the concentration of 50% of the maximal inhibition) were calculated using GraphPad Prism 8.0 software.

NCIH727 cells = experiment: Cancer cell line proliferation (CellTiter-Glo), NCI-H727; format: cell-based; conditions: Homo sapiens, 72 h, NCIH727 lung carcinoid, heterozygous G12V
Method: Cell lines were cultured essentially according to ATCC recommendations.
(§1) SW620 and NCIH727 cells were plated in 384-well tissue culture plates at 1,000 cells/well and incubated at 37° C./5% CO2 for 72 hr in 40 μl of media. […] Each cell line was then treated with test compounds at various concentrations with a final concentration of 0.5% DMSO/well, and then incubated at 37° C./5% CO2 for 72 hr. 40 μl of CellTiter-Glo® Reagent (Promega Corporation, Madison, WI) was added to each well and processed according manufacturer's protocol. Results were analyzed and IC50 values were calculated in GraphPad 8.0 software.

SW620 cells = experiment: Cancer cell line proliferation (CellTiter-Glo), SW620; format: cell-based; conditions: Homo sapiens, SW-620, SW620 colorectal adenocarcinoma, homozygous G12V, 72 hr
Method: as §1, with “Cell lines were cultured essentially according to ATCC recommendations. SW620” for “SW620”

T1 sequence (P01116 1-188 isoform P01116-2 G12V): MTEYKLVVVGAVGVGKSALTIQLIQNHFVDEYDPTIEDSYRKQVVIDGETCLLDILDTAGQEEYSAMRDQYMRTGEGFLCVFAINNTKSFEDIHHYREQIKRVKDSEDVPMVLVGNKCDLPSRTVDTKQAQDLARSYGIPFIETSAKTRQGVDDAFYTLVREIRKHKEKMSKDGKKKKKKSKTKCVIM

| Compound | IC50 (KRAS(G12V)/SOS1) [nM] | EC50 (NCIH727 cells) [nM] | EC50 (SW620 cells) [nM] |
| --- | --- | --- | --- |
| C#Cc1c(F)ccc2cc(O)cc(-c3ncc4c(N5CC6CCC(C5)N6)nc(OCC5(CN6CCC(F)CC6)CC5)nc4c3F)c12 [Example 1, 4-(4-(3,8-diazabicyclo[3.2.1]octan-3-yl)-8-fluoro-2-((1-((4-fluoropiperidin-1-yl)methyl)cyclopropyl)methoxy)pyrido[4,3-d]pyrimidin-7-yl)-5-ethynyl-6-fluoronaphthalen-2-ol] | 100 to 1000 |  |  |
| C#Cc1c(F)ccc2cc(O)cc(-c3ncc4c(N5CC6CCC(C5)N6C(=O)CC#N)nc(OCC5(CN6CCC(F)CC6)CC5)nc4c3F)c12 [Example 2] | < 100 | 100 to 1000 | 100 to 1000 |
| C#Cc1c(F)ccc2cc(O)cc(-c3ncc4c(N5CC6CCC(C5)N6C(=O)CC(C)C)nc(OCC5(CN6CCC(F)CC6)CC5)nc4c3F)c12 [Example 4] | 100 to 1000 | > 1000 |  |
| C#Cc1c(F)ccc2cc(O)cc(-c3ncc4c(N5CC6CCC(C5)N6C(=O)NC5CCOC5)nc(OCC5(CN6CCC(F)CC6)CC5)nc4c3F)c12 (centres unmarked) [Example 9] | < 100 | > 1000 |  |
| C#Cc1c(F)ccc2cc(O)cc(-c3ncc4c(N5CC6CCC(C5)N6C(=O)Nc5ccn[nH]5)nc(OCC5(CN6CCC(F)CC6)CC5)nc4c3F)c12 [Example 10] | < 100 | > 1000 |  |
| C#Cc1c(F)ccc2cc(O)cc(-c3ncc4c(N5CC6CCC(C5)N6C(=O)C(O)O)nc(OCC5(CN6CCC(F)CC6)CC5)nc4c3F)c12 [Example 15] | 100 to 1000 | > 1000 |  |
| C#Cc1c(F)ccc2cc(O)cc(-c3nc(OC)c4c(N5CC6CCC(C5)N6C(=O)CC(F)(F)F)nc(OCC5(CN6CCC(F)CC6)CC5)nc4c3F)c12 [Example 20] | < 100 |  |  |
| C#Cc1c(F)ccc2cc(O)cc(-c3ncc4c(N5CC6CCC(C5)N6C(=O)NCC(C)(C)O)nc(OCC5(CN6CCC(F)CC6)CC5)nc4c3F)c12 [Example 53] | < 100 |  |  |
| C#CCC(=O)N1C2CCC1CN(c1nc(OCC3(CN4CCC(F)CC4)CC3)nc3c(F)c(-c4cc(O)cc5ccc(F)c(C#C)c45)ncc13)C2 [Example 54] | < 100 |  |  |
| C#Cc1c(F)ccc2cc(O)cc(-c3nc(OC)c4c(N5CC6CCC(C5)N6C(=O)NC5CCCC5)nc(OCC5(CN6CCC(F)CC6)CC5)nc4c3F)c12 [Example 55] | < 100 |  |  |
| C#Cc1c(F)ccc2cc(O)cc(-c3ncc4c(N5CC6CCC(C5)N6S(=O)(=O)NCCN(C)C)nc(OCC5(CN6CCC(F)CC6)CC5)nc4c3F)c12 [Example 56] | < 100 |  |  |
| C#CCCC(=O)N1C2CCC1CN(c1nc(OCC3(CN4CCC(F)CC4)CC3)nc3c(F)c(-c4cc(O)cc5ccc(F)c(C#C)c45)nc(OC)c13)C2 [Example 61] | < 100 | 100 to 1000 |  |
| C#Cc1c(F)ccc2cc(O)cc(-c3nc(OC)c4c(N5CC6CCC(C5)N6C(=O)NCCF)nc(OCC5(CN6CCC(F)CC6)CC5)nc4c3F)c12 [Example 62] | < 100 | 100 to 1000 |  |
| C#Cc1c(F)ccc2cc(O)cc(-c3nc(OC)c4c(N5CC6CCC(C5)N6C(=O)NC(C)(C#N)CC)nc(OCC5(CN6CCC(F)CC6)CC5)nc4c3F)c12 (centres unmarked) [Example 64] | < 100 | < 100 |  |
| C#Cc1c(F)ccc2cc(O)cc(-c3nc(OC)c4c(N5CC6CCC(C5)N6C(=O)NC(C)(C)C#N)nc(OCC5(CN6CCC(F)CC6)CC5)nc4c3F)c12 [Example 65] | < 100 | < 100 |  |
| C#Cc1c(F)ccc2cc(O)cc(-c3nc(OC)c4c(N5CC6CCC(C5)N6C(=O)CCC#N)nc(OCC5(CN6CC7CC7C6)CC5)nc4c3F)c12 (centres unmarked) [Example 99] |  | < 100 | 100 to 1000 |
| C#Cc1c(F)ccc2cc(O)cc(-c3nc(OC)c4c(N5CC6CCC(C5)N6C(=O)NCC#N)nc(OCC5(CN6CC7CC7C6)CC5)nc4c3F)c12 (centres unmarked) [Example 104] |  | 100 to 1000 | 100 to 1000 |
| C#Cc1c(F)ccc2cc(O)cc(-c3nc(OC)c4c(N5CC6CCC(C5)N6C(=O)NC(C)C#N)nc(OCC5(CN6CC7CC7C6)CC5)nc4c3F)c12 (centres unmarked) [Example 105] |  | < 100 | 100 to 1000 |
| C#Cc1c(F)ccc2cc(O)cc(-c3nc(OC)c4c(N5CC6CCC(C5)N6C(=O)C(C#N)CC#N)nc(OCC5(CN6CC7CC7C6)CC5)nc4c3F)c12 (centres unmarked) [Example 109] |  | 100 to 1000 | 100 to 1000 |
| [2H]C([2H])([2H])Oc1nc(-c2cc(O)cc3ccc(F)c(C#C)c23)c(F)c2nc(OCC3(CN4CC5CC5C4)CC3)nc(N3CC4CCC(C3)N4C(=O)C(C)C#N)c12 (centres unmarked) [Example 118] | < 100 | 100 to 1000 |  |

| Compound | IC50 (KRAS(G12V)/SOS1) [nM] | EC50 (NCIH727 cells) [nM] | EC50 (SW620 cells) [nM] |
| --- | --- | --- | --- |
| [2H]C([2H])([2H])Oc1nc(-c2cc(O)cc3ccc(F)c(C#C)c23)c(F)c2nc(OCC3(CN4CC5CC5C4)CC3)nc(N3CC4CCC(C3)N4C(=O)C(C)(C)C#N)c12 (centres unmarked) [Example 119] | < 100 | > 1000 |  |
| C#Cc1c(F)ccc2cc(O)cc(-c3nc(OC)c4c(N5CC6CCC(C5)N6C(=O)NCC(F)(F)F)nc(OCC5(CN6CC7CC7C6)CC5)nc4c3F)c12 (centres unmarked) [Example 129] |  | < 100 | 100 to 1000 |
| C#Cc1c(F)ccc2cc(O)cc(-c3nc(OC)c4c(N5CC6CCC(C5)N6C(=O)CC(C)C#N)nc(OCC5(CN6CC7CC7C6)CC5)nc4c3F)c12 (centres unmarked) [Example 140] |  | < 100 | 100 to 1000 |
| C#Cc1c(F)ccc2cc(O)cc(-c3nc(OC)c4c(N5CC6CCC(C5)N6C(=O)CCOC(F)(F)F)nc(OCC5(CN6CC7CC7C6)CC5)nc4c3F)c12 (centres unmarked) [Example 147] |  | 100 to 1000 | 100 to 1000 |
| C#Cc1c(F)ccc2cc(O)cc(-c3nc(OC)c4c(N5CC6CCC(C5)N6C(=O)C(C#N)CC5CC5)nc(OCC5(CN6CC7CC7C6)CC5)nc4c3F)c12 (centres unmarked) [Example 186] |  | > 1000 |  |
| C#Cc1c(F)ccc2cc(O)cc(-c3nc(OC)c4c(N5CC6CCC(C5)N6C(=O)NCC(O)C(F)(F)F)nc(OCC5(CN6CC7CC7C6)CC5)nc4c3F)c12 (centres unmarked) [Example 187] |  | 100 to 1000 |  |
| C#Cc1c(F)ccc2cc(O)cc(-c3nc(OC)c4c(N5CC6CCC(C5)N6C(=O)N[C@H](C)C(F)(F)F)nc(OCC5(CN6CC7CC7C6)CC5)nc4c3F)c12 (some centres unmarked) [Example 188] |  | 100 to 1000 |  |
| C#Cc1c(F)ccc2cc(O)cc(-c3nc(OC)c4c(N5CC6CCC(C5)N6C(=O)NC(C#N)C(N)=O)nc(OCC5(CN6CC7CC7C6)CC5)nc4c3F)c12 (centres unmarked) [Example 189] |  | > 1000 |  |
| C#Cc1c(F)ccc2cc(O)cc(-c3nc(OC)c4c(N5CC6CCC(C5)N6C(=O)N[C@H]5C[C@@H](C#N)C5)nc(OCC5(CN6CC7CC7C6)CC5)nc4c3F)c12 (some centres unmarked) [Example 190] |  | 100 to 1000 |  |
| C#Cc1c(F)ccc2cc(O)cc(-c3nc(OC)c4c(N5CC6CCC(C5)N6C(=O)N[C@H]5C[C@H](C#N)C5)nc(OCC5(CN6CC7CC7C6)CC5)nc4c3F)c12 (some centres unmarked) [Example 191] |  | 100 to 1000 |  |
| C#Cc1c(F)ccc2cc(O)cc(-c3nc(OC)c4c(N5CC6CCC(C5)N6C(=O)NC(C#N)C5CC5)nc(OCC5(CN6CC7CC7C6)CC5)nc4c3F)c12 (centres unmarked) [Example 192] |  | 100 to 1000 |  |
| C#Cc1c(F)ccc2cc(O)cc(-c3nc(OC)c4c(N5CC6CCC(C5)N6C(=O)CC(C)(O)C(F)(F)F)nc(OCC5(CN6CC7CC7C6)CC5)nc4c3F)c12 (centres unmarked) [Example 193] |  | 100 to 1000 |  |
| C#Cc1c(F)ccc2cc(O)cc(-c3nc(OC)c4c(N5CC6CCC(C5)N6C(=O)NC56CC(C#N)(C5)C6)nc(OCC5(CN6CC7CC7C6)CC5)nc4c3F)c12 (centres unmarked) [Example 194] |  | 100 to 1000 |  |
| C#Cc1c(F)ccc2cc(O)cc(-c3nc(OC)c4c(N5CC6CCC(C5)N6C(=O)N[C@@H]5CCC[C@@H]5C#N)nc(OCC5(CN6CC7CC7C6)CC5)nc4c3F)c12 (some centres unmarked) [Example 195] |  | 100 to 1000 |  |
| C#Cc1c(F)ccc2cc(O)cc(-c3nc(OC)c4c(N5CC6CCC(C5)N6C(=O)NC5(C#N)COC5)nc(OCC5(CN6CC7CC7C6)CC5)nc4c3F)c12 (centres unmarked) [Example 196] |  | 100 to 1000 |  |
| C#Cc1c(F)ccc2cc(O)cc(-c3nc(OC)c4c(N5CC6CCC(C5)N6C(=O)NC5(C#N)CCC5)nc(OCC5(CN6CC7CC7C6)CC5)nc4c3F)c12 (centres unmarked) [Example 197] |  | < 100 |  |
| C#Cc1c(F)ccc2cc(O)cc(-c3nc(OC)c4c(N5CC6CCC(C5)N6C(=O)NC56CC(C5)C6)nc(OCC5(CN6CC7CC7C6)CC5)nc4c3F)c12 (centres unmarked) [Example 198] |  | < 100 |  |
| C#Cc1c(F)ccc2cc(O)cc(-c3nc(OC)c4c(N5CC6CCC(C5)N6C(=O)NC5COC5)nc(OCC5(CN6CC7CC7C6)CC5)nc4c3F)c12 (centres unmarked) [Example 199] |  | < 100 |  |
| C#Cc1c(F)ccc2cc(O)cc(-c3nc(OC)c4c(N5CC6CCC(C5)N6C(=O)N5CC(F)C5)nc(OCC5(CN6CC7CC7C6)CC5)nc4c3F)c12 (centres unmarked) [Example 200] |  | < 100 |  |
| C#Cc1c(F)ccc2cc(O)cc(-c3nc(OC)c4c(N5CC6CCC(C5)N6C(=O)N5CC(C(F)F)C5)nc(OCC5(CN6CC7CC7C6)CC5)nc4c3F)c12 (centres unmarked) [Example 201] |  | 100 to 1000 |  |
